Data reported in patent publication US9302999B2, “Substituted triazoles as herbicides” (E. I. DU PONT DE NEMOURS AND COMPANY, priority 2012, dated 2016).

Legend:
Type in all cases: in vivo
[1] = test system: wheat (Triticum aestivum); assay: Test A pre-/postemergence: wheat
In short: (§1)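 Visual 0–100 injury ratings (0 no effect, 100 complete control) taken about ten days after treatment, relative to untreated controls. Preemergence treatment was a directed soil spray; postemergence plants were 2–10 cm tall at one- to two-leaf stage. Soil: loam/sand blend.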

[2] = test system: ryegrass, Italian (Italian ryegrass, Lolium multiflorum); assay: Test C pre-/postemergence: ryegrass, Italian
In short: (§2)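 Preemergence on seeds in loam/sand, postemergence on 2–18 cm (1–4-leaf) plants in peat-based medium; compounds in non-phytotoxic solvent with surfactant. After 13–15 days in greenhouse, visual rating versus controls, 0 (no effect) to 100 (complete control).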

[3] = test system: nutsedge, yellow (yellow nutsedge, Cyperus esculentus); assay: Test C pre-/postemergence: nutsedge, yellow
In short: as §2

corn (Zea mays) = assay: Test A pre-/postemergence: corn
In short: as §1

[4] = test system: large crabgrass (Digitaria sanguinalis); assay: Test C pre-/postemergence: large crabgrass
In short: as §2

[5] = test system: blackgrass (Alopecurus myosuroides); assay: Test C pre-/postemergence: blackgrass
In short: as §2

[6] = test system: johnsongrass (Sorghum halepense); assay: Test C pre-/postemergence: johnsongrass
In short: as §2

soybean (Glycine max) = assay: Test C pre-/postemergence: soybean
In short: as §2

[7] = test system: morningglory (Ipomoea spp.); assay: Test A pre-/postemergence: morningglory
In short: as §1

[8] = test system: barnyardgrass (Echinochloa crus-galli); assay: Test A pre-/postemergence: barnyardgrass
In short: as §1

[9] = test system: pigweed (Amaranthus retroflexus); assay: Test C pre-/postemergence: pigweed
In short: as §2

[10] = Postemergence, 125 g ai/ha, 0 to 100 scale, 0 is no effect, 100 is complete control
[11] = Postemergence, 500 g ai/ha, 0 to 100 scale, 0 is no effect, 100 is complete control
[12] = Preemergence, 125 g ai/ha, 0 to 100 scale where 0 is no effect and 100 is complete control
[13] = Preemergence, 500 g ai/ha, 0 to 100 scale (0 no effect, 100 complete control)
[14] = Postemergence, 31 g ai/ha, scale 0 to 100 (0 no effect, 100 complete control)
[15] = Postemergence, 62 g ai/ha, scale 0 to 100 (0 no effect, 100 complete control)
[16] = Postemergence, 125 g ai/ha, scale 0 to 100, 0 no effect, 100 complete control
[17] = Postemergence, 250 g ai/ha, scale 0 to 100 (0 no effect, 100 complete control)
[18] = Preemergence, 31 g ai/ha, scale 0 (no effect) to 100 (complete control)
[19] = Preemergence, 62 g ai/ha, scale of 0 to 100, 0 is no effect, 100 is complete control
[20] = Preemergence, 125 g ai/ha, scale 0 to 100, 0 no effect, 100 complete control
[21] = Preemergence, 250 g ai/ha, scale 0 to 100, 0 no effect, 100 complete control
[22] = Postemergence, 250 g ai/ha, scale 0 to 100

CCCc1nn(-c2ccc(F)c(F)c2)nc1Oc1ccnc(C(F)(F)F)c1 [Compound 172]
Plant response rating, Wheat [1, 10]: 40
Wheat plant response rating [1, 11]: 50
Plant response rating, Wheat [1, 12]: 50
Plant response rating, Wheat [1, 13]: 70
Plant response rating, Ryegrass, Italian [2, 14]: 10
Plant response rating, Ryegrass, Italian [2, 15]: 20
Plant response rating, Ryegrass, Italian [2, 16]: 35
Plant response rating, Ryegrass, Italian [2, 17]: 40
Plant response rating, Ryegrass, Italian [2, 18]: 100
Plant response rating, Ryegrass, Italian [2, 19]: 100
Plant response rating, Ryegrass, Italian [2, 20]: 100
Plant response rating, Ryegrass, Italian [2, 21]: 100
Plant response rating, Nutsedge, Yellow [3, 14]: 10
Plant response rating, Nutsedge, Yellow [3, 15]: 10
Plant response rating, Nutsedge, Yellow [3, 16]: 15
Plant response rating, Nutsedge, Yellow [3, 17]: 15
Plant response rating, Nutsedge, Yellow [3, 18]: 0
Plant response rating, Nutsedge, Yellow [3, 19]: 5
Plant response rating, Nutsedge, Yellow [3, 20]: 5
Plant response rating, Nutsedge, Yellow [3, 21]: 5
Plant response rating, Corn (corn (Zea mays); [10]): 30
Corn plant response rating (corn (Zea mays); [11]): 50
Plant response rating, Corn (corn (Zea mays); [12]): 30
Plant response rating, Corn (corn (Zea mays); [13]): 60
Plant response rating, Crabgrass, Large [4, 14]: 20
Plant response rating, Crabgrass, Large [4, 15]: 55
Plant response rating, Crabgrass, Large [4, 16]: 65
Plant response rating, Crabgrass, Large [4, 22]: 95
Plant response rating, Crabgrass, Large [4, 18]: 100
Plant response rating, Crabgrass, Large [4, 19]: 100
Plant response rating, Crabgrass, Large [4, 20]: 100
Plant response rating, Crabgrass, Large [4, 21]: 100
Plant response rating, Blackgrass [5, 14]: 10
Plant response rating, Blackgrass [5, 15]: 25
Plant response rating, Blackgrass [5, 16]: 60
Plant response rating, Blackgrass [5, 22]: 60
Plant response rating, Blackgrass [5, 18]: 90
Plant response rating, Blackgrass [5, 19]: 95
Plant response rating, Blackgrass [5, 20]: 95
Plant response rating, Blackgrass [5, 21]: 95
Plant response rating, Johnsongrass [6, 14]: 35
Plant response rating, Johnsongrass [6, 15]: 60
Plant response rating, Johnsongrass [6, 16]: 65
Plant response rating, Johnsongrass [6, 17]: 95
Plant response rating, Johnsongrass [6, 18]: 60
Plant response rating, Johnsongrass [6, 19]: 75
Plant response rating, Johnsongrass [6, 20]: 95
Plant response rating, Johnsongrass [6, 21]: 98
Plant response rating, Soybean (soybean (Glycine max); [14]): 35
Plant response rating, Soybean (soybean (Glycine max); [15]): 45
Plant response rating, Soybean (soybean (Glycine max); [16]): 60
Plant response rating, Soybean (soybean (Glycine max); [17]): 60
Plant response rating, Soybean (soybean (Glycine max); [18]): 5
Plant response rating, Soybean (soybean (Glycine max); [19]): 10
Plant response rating, Soybean (soybean (Glycine max); [20]): 10
Plant response rating, Soybean (soybean (Glycine max); [21]): 35
Plant response rating, Morningglory [7, 10]: 100
Morningglory plant response rating [7, 11]: 100
Plant response rating, Morningglory [7, 12]: 60
Plant response rating, Morningglory [7, 13]: 80
Plant response rating, Barnyardgrass [8, 10]: 90
Barnyardgrass plant response rating [8, 11]: 90
Plant response rating, Pigweed [9, 14]: 98
Plant response rating, Pigweed [9, 15]: 98
Plant response rating, Pigweed [9, 16]: 98
Plant response rating, Pigweed [9, 17]: 98
Plant response rating, Pigweed [9, 18]: 100
Plant response rating, Pigweed [9, 19]: 100
Plant response rating, Pigweed [9, 20]: 100
Plant response rating, Pigweed [9, 21]: 100

CCCc1nn(-c2ccc(F)cc2F)nc1Oc1ccnc(C(F)(F)F)c1 [Compound 179]
Plant response rating, Wheat [1, 10]: 30
Wheat plant response rating [1, 11]: 40
Plant response rating, Wheat [1, 12]: 20
Plant response rating, Wheat [1, 13]: 50
Plant response rating, Ryegrass, Italian [2, 14]: 10
Plant response rating, Ryegrass, Italian [2, 15]: 15
Plant response rating, Ryegrass, Italian [2, 16]: 25
Plant response rating, Ryegrass, Italian [2, 17]: 40
Plant response rating, Ryegrass, Italian [2, 18]: 45
Plant response rating, Ryegrass, Italian [2, 19]: 95
Plant response rating, Ryegrass, Italian [2, 20]: 95
Plant response rating, Ryegrass, Italian [2, 21]: 95
Plant response rating, Nutsedge, Yellow [3, 14]: 5
Plant response rating, Nutsedge, Yellow [3, 15]: 5
Plant response rating, Nutsedge, Yellow [3, 16]: 10
Plant response rating, Nutsedge, Yellow [3, 17]: 10
Plant response rating, Nutsedge, Yellow [3, 18]: 0
Plant response rating, Nutsedge, Yellow [3, 19]: 0
Plant response rating, Nutsedge, Yellow [3, 20]: 0
Plant response rating, Nutsedge, Yellow [3, 21]: 5
Plant response rating, Corn (corn (Zea mays); [10]): 20
Corn plant response rating (corn (Zea mays); [11]): 30
Plant response rating, Corn (corn (Zea mays); [12]): 20
Plant response rating, Corn (corn (Zea mays); [13]): 30
Plant response rating, Crabgrass, Large [4, 14]: 20
Plant response rating, Crabgrass, Large [4, 15]: 20
Plant response rating, Crabgrass, Large [4, 16]: 35
Plant response rating, Crabgrass, Large [4, 22]: 80
Plant response rating, Crabgrass, Large [4, 18]: 100
Plant response rating, Crabgrass, Large [4, 19]: 100
Plant response rating, Crabgrass, Large [4, 20]: 100
Plant response rating, Crabgrass, Large [4, 21]: 100
Plant response rating, Blackgrass [5, 14]: 30
Plant response rating, Blackgrass [5, 15]: 50
Plant response rating, Blackgrass [5, 16]: 55
Plant response rating, Blackgrass [5, 22]: 60
Plant response rating, Blackgrass [5, 18]: 80
Plant response rating, Blackgrass [5, 19]: 100
Plant response rating, Blackgrass [5, 20]: 100
Plant response rating, Blackgrass [5, 21]: 100
Plant response rating, Johnsongrass [6, 14]: 10
Plant response rating, Johnsongrass [6, 15]: 20
Plant response rating, Johnsongrass [6, 16]: 20
Plant response rating, Johnsongrass [6, 17]: 55
Plant response rating, Johnsongrass [6, 18]: 5
Plant response rating, Johnsongrass [6, 19]: 60
Plant response rating, Johnsongrass [6, 20]: 95
Plant response rating, Johnsongrass [6, 21]: 100
Plant response rating, Soybean (soybean (Glycine max); [14]): 30
Plant response rating, Soybean (soybean (Glycine max); [15]): 35
Plant response rating, Soybean (soybean (Glycine max); [16]): 45
Plant response rating, Soybean (soybean (Glycine max); [17]): 45
Plant response rating, Soybean (soybean (Glycine max); [18]): 0
Plant response rating, Soybean (soybean (Glycine max); [19]): 10
Plant response rating, Soybean (soybean (Glycine max); [20]): 10
Plant response rating, Soybean (soybean (Glycine max); [21]): 25
Plant response rating, Morningglory [7, 10]: 100
Morningglory plant response rating [7, 11]: 100
Plant response rating, Morningglory [7, 12]: 40
Plant response rating, Morningglory [7, 13]: 70
Plant response rating, Barnyardgrass [8, 10]: 90
Barnyardgrass plant response rating [8, 11]: 90
Plant response rating, Barnyardgrass [8, 12]: 90
Plant response rating, Barnyardgrass [8, 13]: 100
Plant response rating, Pigweed [9, 14]: 95
Plant response rating, Pigweed [9, 15]: 98
Plant response rating, Pigweed [9, 16]: 98
Plant response rating, Pigweed [9, 17]: 100
Plant response rating, Pigweed [9, 18]: 100
Plant response rating, Pigweed [9, 19]: 100
Plant response rating, Pigweed [9, 20]: 100
Plant response rating, Pigweed [9, 21]: 100
